Key:
CF mice [1] = experiment: Pulmonary mechanics of CF mice by forced oscillation technique (FlexiVent) after treatment with AGTR2 blocker; assay type: in vivo; conditions: 2 mg/kg per day subcutaneous, 5 days per week, age 3 to 16 weeks, assessed at 16 weeks, 2 mg/kg/day
Source text: AGTR2 knockout mice (AT KO; dark grey bars) are indistinguishable from WT mice.
We recently used a forced mechanical oscillation procedure to evaluate pulmonary mechanics in CF mice (DF508 congenic C57bl/6). We determined that CF mice have decreased compliance and increased elastance of their overall respiratory system, along with altered airway tissue elastance, damping, and static compliance (FIG. 1). […] Taken together, these findings indicate increased impedance of the small airways in CF mice, as differences in CF mouse pulmonary mechanics were confined to the peripheral tissues, which include the distal airways and lung parenchyma itself. This is consistent with the pulmonary phenotype of CF patients, where significant increases in small airways resistance may occur even in patients with normal spirometry.
(§1) Drugs exist that are designed to specifically block the AGTR2 receptor, and we used one of these drugs to determine whether the same benefits may be achievable through pharmaceutical intervention. Briefly, CF mice were treated via subcutaneous injection of EMA200 (PD123319), available from Sigma Pharmaceuticals), at a dose of 2 mg/kg per day. The mice were treated from age 3 weeks through adulthood (16 weeks), 5 days per week. At 16 weeks, the pulmonary mechanics of the mice were assessed using the forced oscillation technique (FIG. 1).

CF mice [2] = experiment: Survival and health of CF mice during the drug study; assay type: in vivo
Protocol: as §1

## Cc1cc(Cn2cnc3c2CC(C(=O)O)N(C(=O)C(c2ccccc2)c2ccccc2)C3)ccc1N(C)C (centres unmarked) [EMA200, 1-(4-Dimethylamino-3-methylphenyl)methyl-5-diphenylacetyl-4,5,6,7-tetrahy-dro-1H-imidazo[4,5-c]-pyridine-6-carboxylic acid]
CF mice [1]
  pulmonary mechanics / all aspects of pulmonary disease (respiratory system compliance and elastance, tissue damping, tissue elastance, static tissue compliance): successfully restored/prevented all aspects of pulmonary disease in CF mice
  shape parameter (inhalation/exhalation curve shape, K): not improved
CF mice [1]; listed as AGTR2 inhibitor
  pulmonary mechanics / all aspects of pulmonary disease (respiratory system compliance and elastance, tissue damping, tissue elastance, static tissue compliance): improved pulmonary mechanics
CF mice [2]; 6 CF mice, daily injections, saline controls 5/6 died
  survival of CF mice: all survived
CF mice [2]; versus control untreated CF mice
  general health appearance of CF mice: appeared much healthier
